Values of other authors, collected in publication PMC3671928 (Analytical chemistry, 2013).

How the values were obtained:
aminopeptidase N = settings: read-out: IC50, aminopeptidase N
[1] = target: leucine aminopeptidase (LAP); settings: read-out: IC50, leucine aminopeptidase (LAP)
peptidase activity = settings: 1 μM applied to cells for 24 h
U937 cells = settings: prolonged exposure to 1 μM
[2] = target: puromycin-sensitive aminopeptidase (PuSA); settings: read-out: IC50, puromycin-sensitive aminopeptidase (PuSA)

IC50 (aminopeptidase N): 220 nM | IC50 [1]: 100 nM | inhibition of fragmentation of a fluorogenic substrate (peptidase activity): approximately 50% | IC50 [2]: 150 nM
SMILES: CC(C)C[C@@H](C(=O)N[C@H](C(=O)OC1CCCC1)c1ccccc1)[C@H](O)C(=O)NO [Tosedostat]
effect on proliferation of U937 cells (U937 cells): substantially inhibits proliferation
